How the values were obtained:
Type in all cases: binding
Details in all cases: Compound Concentration 10 µM
panel of 442 kinases [1] = biological target: T1, panel of 442 kinases (Homo sapiens, UniProt P51451)
T1 construct: purchased KINOMEscan
Source text: (§1) We assessed the selectivity of members of this scaffold using the KINOMEscan methodology across a near comprehensive panel of 442 kinases [[18,27]].

panel of 442 kinases [2] = biological target: T2, panel of 442 kinases (Homo sapiens, UniProt O75460)
T2 construct: purchased KINOMEscan
Source text: as §1

panel of 442 kinases [3] = biological target: T3, panel of 442 kinases (Homo sapiens, UniProt Q9BVS4)
T3 construct: purchased KINOMEscan
Source text: as §1

panel of 442 kinases [4] = biological target: T4, panel of 442 kinases (Homo sapiens, UniProt P22607)
T4 construct: purchased KINOMEscan
Source text: as §1

T1 sequence (P51451 whole entry): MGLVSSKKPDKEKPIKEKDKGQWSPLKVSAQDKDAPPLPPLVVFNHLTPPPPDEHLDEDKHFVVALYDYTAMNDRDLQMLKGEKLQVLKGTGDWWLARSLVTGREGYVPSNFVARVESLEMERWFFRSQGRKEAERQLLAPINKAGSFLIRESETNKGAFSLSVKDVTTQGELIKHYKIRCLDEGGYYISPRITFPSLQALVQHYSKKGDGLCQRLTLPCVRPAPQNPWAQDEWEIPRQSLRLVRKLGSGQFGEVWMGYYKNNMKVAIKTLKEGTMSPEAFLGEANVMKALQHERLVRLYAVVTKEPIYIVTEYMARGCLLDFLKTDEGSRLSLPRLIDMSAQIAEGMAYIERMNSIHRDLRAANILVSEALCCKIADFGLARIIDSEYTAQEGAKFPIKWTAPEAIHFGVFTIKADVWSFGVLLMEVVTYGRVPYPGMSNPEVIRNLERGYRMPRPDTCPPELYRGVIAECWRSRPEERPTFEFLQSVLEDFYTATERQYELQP
T2 sequence (O75460 19-977): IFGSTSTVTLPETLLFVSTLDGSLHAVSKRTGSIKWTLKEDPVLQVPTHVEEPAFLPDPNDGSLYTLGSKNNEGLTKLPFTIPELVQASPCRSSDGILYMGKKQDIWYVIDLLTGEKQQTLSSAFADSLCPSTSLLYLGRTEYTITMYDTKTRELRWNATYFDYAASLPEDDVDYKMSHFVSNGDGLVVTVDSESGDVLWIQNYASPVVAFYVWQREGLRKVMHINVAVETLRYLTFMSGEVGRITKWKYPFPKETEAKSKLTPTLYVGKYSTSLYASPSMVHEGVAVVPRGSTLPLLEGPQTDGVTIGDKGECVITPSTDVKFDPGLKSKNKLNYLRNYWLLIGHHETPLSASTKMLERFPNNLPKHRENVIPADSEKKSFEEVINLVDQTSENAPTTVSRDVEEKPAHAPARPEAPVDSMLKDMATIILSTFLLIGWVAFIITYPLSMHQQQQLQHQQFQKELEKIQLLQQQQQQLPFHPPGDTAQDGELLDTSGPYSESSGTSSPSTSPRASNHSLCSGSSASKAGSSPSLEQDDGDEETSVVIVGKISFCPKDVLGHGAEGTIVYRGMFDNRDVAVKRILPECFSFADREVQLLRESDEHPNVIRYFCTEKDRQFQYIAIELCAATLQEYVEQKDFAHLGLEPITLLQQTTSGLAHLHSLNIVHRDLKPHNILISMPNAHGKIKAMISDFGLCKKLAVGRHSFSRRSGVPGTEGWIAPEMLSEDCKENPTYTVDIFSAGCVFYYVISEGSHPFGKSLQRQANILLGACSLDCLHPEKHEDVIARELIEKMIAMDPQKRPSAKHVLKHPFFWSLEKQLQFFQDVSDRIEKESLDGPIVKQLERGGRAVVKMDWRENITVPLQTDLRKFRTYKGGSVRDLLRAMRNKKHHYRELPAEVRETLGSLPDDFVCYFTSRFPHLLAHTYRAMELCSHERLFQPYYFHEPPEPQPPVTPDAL
T4 sequence (P22607 23-806): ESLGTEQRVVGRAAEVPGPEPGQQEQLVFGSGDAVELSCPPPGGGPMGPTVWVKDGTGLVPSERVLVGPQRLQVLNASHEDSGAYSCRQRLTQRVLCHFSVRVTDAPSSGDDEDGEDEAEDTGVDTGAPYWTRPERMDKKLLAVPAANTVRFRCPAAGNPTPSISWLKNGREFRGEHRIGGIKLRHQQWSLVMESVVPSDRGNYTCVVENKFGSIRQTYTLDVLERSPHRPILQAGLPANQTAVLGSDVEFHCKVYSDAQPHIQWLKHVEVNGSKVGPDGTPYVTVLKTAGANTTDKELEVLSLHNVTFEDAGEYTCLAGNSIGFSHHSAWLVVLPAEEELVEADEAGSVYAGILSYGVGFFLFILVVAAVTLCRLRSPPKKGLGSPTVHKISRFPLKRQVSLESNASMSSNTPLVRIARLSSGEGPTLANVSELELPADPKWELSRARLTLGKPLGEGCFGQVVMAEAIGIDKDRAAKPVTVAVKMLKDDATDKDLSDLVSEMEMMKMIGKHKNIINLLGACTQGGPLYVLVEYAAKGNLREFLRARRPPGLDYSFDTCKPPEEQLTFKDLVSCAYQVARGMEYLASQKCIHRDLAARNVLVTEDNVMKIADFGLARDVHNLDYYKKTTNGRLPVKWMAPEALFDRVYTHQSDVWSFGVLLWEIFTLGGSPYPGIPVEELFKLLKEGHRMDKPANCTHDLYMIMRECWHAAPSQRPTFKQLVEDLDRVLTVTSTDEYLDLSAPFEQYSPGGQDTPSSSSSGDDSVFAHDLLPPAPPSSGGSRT
T3 sequence (Q9BVS4 whole entry): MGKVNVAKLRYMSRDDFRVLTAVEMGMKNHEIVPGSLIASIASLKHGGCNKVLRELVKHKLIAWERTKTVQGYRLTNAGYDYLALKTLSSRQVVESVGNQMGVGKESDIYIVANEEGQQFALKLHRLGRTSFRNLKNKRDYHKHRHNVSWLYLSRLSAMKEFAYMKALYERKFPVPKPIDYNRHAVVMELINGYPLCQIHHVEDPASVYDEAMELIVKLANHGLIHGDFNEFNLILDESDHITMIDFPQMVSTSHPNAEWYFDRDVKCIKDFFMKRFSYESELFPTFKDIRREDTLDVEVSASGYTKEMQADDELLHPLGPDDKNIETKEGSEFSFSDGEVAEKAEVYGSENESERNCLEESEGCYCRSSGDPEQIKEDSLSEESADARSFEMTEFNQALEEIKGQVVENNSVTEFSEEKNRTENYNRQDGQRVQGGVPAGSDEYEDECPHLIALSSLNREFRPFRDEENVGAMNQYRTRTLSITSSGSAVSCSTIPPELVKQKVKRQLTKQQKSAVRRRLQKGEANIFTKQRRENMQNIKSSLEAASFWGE

Row | SMILES | KINOMEscan: BLK (panel of 442 kinases [1]) | KINOMEscan: ERN1 (panel of 442 kinases [2]) | KINOMEscan: RIOK2 (panel of 442 kinases [3]) | KINOMEscan: FGFR3 (panel of 442 kinases [4])
1 | COc1cc(C(=O)N2CCC(N3CCN(C)CC3)CC2)ccc1Nc1ncc2c(n1)N(C)c1ccccc1C(=O)N2C [15 (LRRK2-IN-1)] | 97 | 59 | 100 | 80
2 | COc1cc(C(=O)N2CCC(N3CCN(C)CC3)CC2)ccc1Nc1ncc2c(n1)N1CCc3cccc(c31)C(=O)N2C [Compound 24] | – | – | 81 | 80
3 | COc1cc(C(=O)N2CCC(N3CCN(C)CC3)CC2)ccc1Nc1ncc2c(n1)N(C1CCCC1)c1ccccc1C(=O)N2C [Compound 25, 11-cyclopentyl-2-((2-methoxy-4-(4-(4-methylpiperazin-1-yl)piperidine-1-carbonyl)phenyl)amino)-5-methyl-5H-benzo[e]pyrimido[5,4-b][1,4]diazepin-6(11H)-one] | 100 | 96 | 93 | 88
4 | CCOc1cc(C(=O)N2CCC(N3CCN(C)CC3)CC2)ccc1Nc1ncc2c(n1)N(C1CCCC1)c1ccccc1C(=O)N2C [Compound 26] | 100 | 87 | 81 | 100
